Assay results from ChEMBL document CHEMBL1212707, “Decoding endocannabinoid signaling” (Nat Chem Biol, 2009).
pIC50: −log10 of the molar value.

Tests used:
Brain = assay: Increase in 2-arachidonoylglycerol level in mouse brain relative to untreated control; assay type: functional
[1] = Inhibition of MAGL
Mus musculus = species: Mus musculus; assay: Inhibition of MAGL in mouse brain; assay type: tissue-based; settings: dose or concentration not given here

## O=C(Oc1ccc([N+](=O)[O-])cc1)N1CCC(C(O)(c2ccc3c(c2)OCO3)c2ccc3c(c2)OCO3)CC1
Brain
  fold change (FC): 8
[1]
  pIC50: 8.10
Mus musculus
  inhibition: 85%
